Measurements taken from patent EP1561465A2, “Methods of use of fluoroquinolone compounds against bacteria” (LG Life Sciences, Ltd., priority 1999, dated 2001).
Converted amounts (≈) assume the structure as drawn. Where two headings read alike, the source gives them in different places.

Test system: Streptococcus pneumoniae
Test: MIC by agar dilution (NCCLS), 411 isolates Buenos Aires 1998-99
Format: cell-based
Conditions: Streptococcus pneumoniae, S. pneumoniae, read-out: MIC90

- MIC90 (Penicillin intermediate (n = 17)): 1 µg/mL (≈ 1.8 µM)
- MIC90 (Penicillin resistant (n = 4)): 1 µg/mL (≈ 1.8 µM)
- MIC90 (Penicillin susceptible (n = 69)): 0.016 µg/mL (≈ 0.0289 µM)
Structure (SMILES): CO/N=C(\C(=O)N[C@@H]1C(=O)N2C(C(=O)O)=C(CSc3nc(=O)c(=O)[nH]n3C)CS[C@H]12)c1csc(N)n1 [Ceftriaxone, ceftriaxone]
